The target in one assay is T1, Human CD73 (Homo sapiens, UniProt P21589).
T1 construct: purchased R&D Systems; host or cells: CHO cells
T1 sequence (P21589 27-549): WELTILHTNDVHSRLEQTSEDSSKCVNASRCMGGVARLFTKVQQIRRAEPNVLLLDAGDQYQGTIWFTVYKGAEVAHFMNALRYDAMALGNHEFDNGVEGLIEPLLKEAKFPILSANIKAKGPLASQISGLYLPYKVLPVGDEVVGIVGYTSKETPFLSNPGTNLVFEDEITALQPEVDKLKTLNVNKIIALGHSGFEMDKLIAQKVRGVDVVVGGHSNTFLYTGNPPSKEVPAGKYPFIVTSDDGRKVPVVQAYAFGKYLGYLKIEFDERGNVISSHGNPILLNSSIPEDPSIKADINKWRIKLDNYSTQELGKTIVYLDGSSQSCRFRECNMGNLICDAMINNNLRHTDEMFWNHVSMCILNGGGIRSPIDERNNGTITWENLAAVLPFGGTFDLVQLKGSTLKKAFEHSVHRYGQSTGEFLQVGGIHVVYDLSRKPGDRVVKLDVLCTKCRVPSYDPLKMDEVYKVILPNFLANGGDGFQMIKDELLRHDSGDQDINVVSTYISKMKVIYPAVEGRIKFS
The experiment in a line: CD73 Enzyme Assay. In kind it is biochemical. The following applies: 0.25 nM hCD73, 25 μM AMP, kinetic read at 360 nm; read-out: CD73 Enzyme Assay IC50.

Assay [1] has as its target T2, CD73 on U138 human neuroglioma cells (Homo sapiens, UniProt P21589).
T2 construct: U138 cells were obtained from ATCC and cultured in DMEM with 10% FBS; host or cells: U138 human neuroglioma cells
T2 sequence (P21589 27-549): T1 sequence (P21589 27-549)
The experiment in a line: CD73 Cell-Based Assay. The following applies: U138 cells, AMP substrate, 2 hours at 37° C., inorganic phosphate by malachite green. The procedure, abridged: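 Whole U138 cells washed free of phosphate were incubated with 200 μM AMP (mixture concentration before equal-volume addition) plus compound in HEPES-buffered saline, pH 7.4, for 2 h at 37 °C, 5% CO2. Adenosine-forming activity read as inorganic phosphate released into supernatant by malachite green.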

For orientation: IC50 means the midpoint of a concentration-inhibition curve.

`CC(C)(C)C(=O)OCOP(=O)(COC[C@H]1O[C@@H](n2ccc3c(N4CC5CCCC5C4)nc(Cl)nc32)[C@H](O)[C@@H]1O)OCOC(=O)C(C)(C)C` (stereo partly drawn) [Compound 203, [[(2R,3S,4R,5R)-5-[4-(3,3a,4,5,6,6a-hexa-hydro-1H-cyclopenta-[c]pyrrol-2-yl)-2-chloro-pyrrolo[2,3-d]-pyrimidin-7-yl]-3,4-dihydroxy-tetrahydro-furan-2-yl]methoxy-methyl-(2,2-dimethyl-propanoyloxymethoxy)-phosphoryl]oxymethyl 2,2-dimethylpropanoate]: the values for the IC50 (on Human CD73; in assay [1]) were 100 to 1000 nM and 10 to 100 nM, respectively.

Regarding `C[C@H](Nc1nc(C#N)nc2c1ccn2[C@@H]1O[C@H](COCP(=O)(O)O)[C@@H](O)[C@H]1O)c1ccc(C2CC2)cc1` [Compound 204, [(2R,3S,4R,5R)-5-[2-cyano-4-[[(1S)-1-(4-cyclopropylphenyl)-ethyl]amino]pyrrolo-[2,3-d]pyrimidin-7-yl]-3,4-dihydroxy-tetra-hydrofuran-2-yl]-methoxymethylphos-phonic acid], the IC50 (on Human CD73; in assay [1]) was below 10 nM each time.

As for `C[C@@H](Nc1nc(C#N)nc2c1ccn2[C@@H]1O[C@H](COCP(=O)(O)O)[C@@H](O)[C@H]1O)c1ccc(C2CC2)cc1` [Compound 205, [(2R,3S,4R,5R)-5-[2-cyano-4-[[(1R)-1-(4-cyclopropylphenyl)-ethyl]amino]pyrrolo-[2,3-d]pyrimidin-7-yl]-3,4-dihydroxy-tetra-hydrofuran-2-yl]-methoxymethylphos-phonic acid], the IC50 (at Human CD73; in assay [1]) was below 10 nM in each case.

With `O=P(O)(O)COC[C@H]1O[C@@H](n2ccc3c(Oc4ccccc4)nc(Cl)nc32)[C@H](O)[C@@H]1O` [Compound 206, [(2R,3S,4R,5R)-5-(2-chloro-4-phenoxy-pyrrolo[2,3-d]-pyrimidin-7-yl)-3,4-dihydroxy-tetrahydro-furan-2-yl]methoxy-methylphosphonic acid], the IC50 is 10 to 100 nM at Human CD73 and above 1000 nM in assay [1].

Turning to `O=P(O)(O)COC[C@H]1O[C@@H](n2ccc3c(Sc4ccccc4)nc(Cl)nc32)[C@H](O)[C@@H]1O` [Compound 207, [(2R,3S,4R,5R)-5-(2-chloro-4-phenyl-sulfanyl-pyrrolo[2,3-d]-pyrimidin-7-yl)-3,4-dihydroxy-tetrahydro-furan-2-yl]methoxy-methylphosphonic acid], the IC50 (on Human CD73; in assay [1]) was 100 to 1000 nM in each case.

In the case of `N#Cc1cn([C@@H]2O[C@H](COCP(=O)(O)O)[C@@H](O)[C@H]2O)c2nc(Cl)nc(NC3CCCC3)c12` [Compound 209, [(2R,3S,4R,5R)-5-[2-chloro-5-cyano-4-(cyclopentylamino)-pyrrolo[2,3-d]-pyrimidin-7-yl]-3,4-dihydroxy-tetrahydro-furan-2-yl]methoxy-methylphosphonic acid], the IC50 (at Human CD73; in assay [1]) was 100 to 1000 nM each time.

As for `O=P(O)(O)COC[C@H]1O[C@@H](n2ccc3c(Nc4ccccc4)nc(Cl)nc32)[C@H](O)[C@@H]1O` [Compound 211, [(2R,3S,4R,5R)-5-(4-anilino-2-chloro-pyrrolo[2,3-d]-pyrimidin-7-yl)-3,4-dihydroxy-tetrahydro-furan-2-yl]methoxy-methylphosphonic acid], the IC50 (on Human CD73; in assay [1]) was 100 to 1000 nM in each case.

For the compound `O=P(O)(O)COC[C@H]1O[C@@H](n2ccc3c(-c4ccccc4)nc(Cl)nc32)[C@H](O)[C@@H]1O` [Compound 212, [(2R,3S,4R,5R)-5-(2-chloro-4-phenyl-pyrrolo[2,3-d]-pyrimidin-7-yl)-3,4-dihydroxy-tetrahydro-furan-2-yl]methoxy-methylphosphonic acid], the IC50 (at Human CD73; in assay [1]) was 10 to 100 nM each time.

As to `O=P(O)(O)COC[C@H]1O[C@@H](n2ccc3c(C4CCCC4)nc(Cl)nc32)[C@H](O)[C@@H]1O` [Compound 213, [(2R,3S,4R,5R)-5-(2-chloro-4-cyclopentyl-pyrrolo[2,3-d]-pyrimidin-7-yl)-3,4-dihydroxy-tetrahydro-furan-2-yl]methoxy-methylphosphonic acid], the IC50 (at Human CD73; in assay [1]) was 10 to 100 nM each time.

Turning to `O=P(O)(O)COC[C@H]1O[C@@H](n2ccc3c(N[C@@H](CO)c4ccccc4)nc(Cl)nc32)[C@H](O)[C@@H]1O` [Compound 218, [(2R,3S,4R,5R)-5-[2-chloro-4-[[(1R)-2-hydroxy-1-phenyl-ethyl]amino]pyrrolo-[2,3-d]pyrimidin-7-yl]-3,4-dihydroxy-tetra-hydrofuran-2-yl]-methoxymethylphos-phonic acid], the IC50 (at Human CD73; in assay [1]) was 10 to 100 nM in each case.

Consider `O=P(O)(O)COC[C@H]1O[C@@H](n2ccc3c(OC4CCCC4)nc(Cl)nc32)[C@H](O)[C@@H]1O` [Compound 219, [(2R,3S,4R,5R)-5-[2-chloro-4-(cyclo-pentoxy)pyrrolo[2,3-d]-pyrimidin-7-yl]-3,4-dihydroxy-tetrahydro-furan-2-yl]methoxy-methylphosphonic acid], for which the IC50 (at Human CD73; in assay [1]) was 10 to 100 nM in each case.

As for `CC(C)C(=O)COP(=O)(O)COC[C@H]1O[C@@H](n2ccc3c(NC4CCCC4)nc(Cl)nc32)[C@H](O)[C@@H]1O` [Compound 222, [(2R,3S,4R,5R)-5-[2-chloro-4-(cyclopentyl-amino)pyrrolo[2,3-d]-pyrimidin-7-yl]-3,4-dihydroxy-tetrahydro-furan-2-yl]methoxy-methyl-(3-methyl-2-oxo-butoxy)phosphinic acid], the IC50 (at Human CD73; in assay [1]) was 100 to 1000 nM in each case.

`O=P(O)(O)CP(=O)(O)OC[C@H]1O[C@@H](n2ccc3c(NC4CCCC4)nc(Cl)nc32)[C@H](O)[C@@H]1O` [Compound 229]: the IC50 (on Human CD73; in assay [1]) was below 10 nM each time.

Regarding `O=P(O)(O)COC[C@H]1O[C@@H](n2ccc3c(NC4CCCC4)nc(I)nc32)[C@H](O)[C@@H]1O` [Compound 230, [(2R,3S,4R,5R)-5-[4-(cyclopentylamino)-2-iodo-pyrrolo[2,3-d]-pyrimidin-7-yl]-3,4-dihydroxy-tetrahydro-furan-2-yl]methoxy-methylphosphonic acid], the IC50 (on Human CD73; in assay [1]) was below 10 nM in each case.

For `O=P(O)(O)COC[C@H]1O[C@@H](n2ccc3c(NC4CCCC4)nc(C(F)(F)F)nc32)[C@H](O)[C@@H]1O` [Compound 231, [(2R,3S,4R,5R)-5-[4-(cyclopentylamino)-2-(trifluoromethyl)-pyrrolo[2,3-d]-pyrimidin-7-yl]-3,4-dihydroxy-tetrahydro-furan-2-yl]methoxy-methylphosphonic acid], the IC50 (on Human CD73; in assay [1]) was 10 to 100 nM in each case.

As to `O=P(O)(COC[C@H]1O[C@@H](n2ccc3c(NC4CCCC4)nc(Cl)nc32)[C@H](O)[C@@H]1O)OCC(F)(F)F` [Compound 232, [(2R,3S,4R,5R)-5-[2-chloro-4-(cyclopentyl-amino)pyrrolo[2,3-d]-pyrimidin-7-yl]-3,4-dihydroxy-tetrahydro-furan-2-yl]methoxy-methyl-(2,2,2-trifluoro-ethoxy)phosphinic acid], the IC50 (at Human CD73; in assay [1]) was 10 to 100 nM each time.

As for `O=P(O)(O)COC[C@H]1O[C@@H](n2ncc3c(NC4CCCC4)nc(Cl)nc32)[C@H](O)[C@@H]1O` [Compound 240, ((((2R,3S,4R,5R)-5-(6-chloro-4-(cyclopentylamino)-1H-pyrazolo[3,4-d]pyrimidin-1-yl)-3,4-dihydroxytetrahydrofuran-2-yl)methoxy)methyl)phosphonic acid], the IC50 (on Human CD73; in assay [1]) was below 10 nM each time.

With `O=P(O)(O)COC[C@H]1O[C@@H](n2ccc3c(NC4CCCC4)nc(C#CCO)nc32)[C@H](O)[C@@H]1O` [Compound 243, [(2R,3S,4R,5R)-5-[4-(cyclopentylamino)-2-(3-hydroxyprop-1-ynyl)pyrrolo[2,3-d]-pyrimidin-7-yl]-3,4-dihydroxy-tetrahydro-furan-2-yl]methoxy-methylphosphonic acid], the IC50 (on Human CD73; in assay [1]) was below 10 nM each time.

Turning to `C#Cc1nc(NC2CCCC2)c2ccn([C@@H]3O[C@H](COCP(=O)(O)O)[C@@H](O)[C@H]3O)c2n1` [Compound 244, [(2R,3S,4R,5R)-5-[4-(cyclopentylamino)-2-ethynyl-pyrrolo[2,3-d]-pyrimidin-7-yl]-3,4-dihydroxy-tetrahydro-furan-2-yl]methoxy-methylphosphonic acid], the IC50 (at Human CD73; in assay [1]) was below 10 nM each time.

For the compound `COc1nc(NC2CCCC2)c2ccn([C@@H]3O[C@H](COCP(=O)(O)O)[C@@H](O)[C@H]3O)c2n1` [Compound 247, [(2R,3S,4R,5R)-5-[4-(cyclopentylamino)-2-methoxy-pyrrolo[2,3-d]pyrimidin-7-yl]-3,4-dihydroxy-tetrahydro-furan-2-yl]methoxy-methylphosphonic acid], the IC50 (on Human CD73; in assay [1]) was 10 to 100 nM in each case.

Values taken from patent publication US11591355B2 (Peloton Therapeutics, Inc., priority 2017, dated 2023).
